From paper PMC5114727, “Biological characterization of chemically diverse compounds targeting the Plasmodium falciparum coenzyme A synthesis pathway” (Parasites & Vectors, 2016)
“And” between values parts separate entries of the source, which are not always exact repeats. Equal values may be shown once. Read-outs that look alike come from different tables or passages of the source.

Key:
[1] = test system: P. falciparum pantothenate kinase (PfPanK); test: Radiometric pantothenate phosphorylation assay in P. falciparum lysate; format: biochemical, Plasmodium falciparum; conditions: 100 μM single concentration, all compounds (Figure S2a)
Experimental: A radiometric assay, which allows measurement of the phosphorylation of various substrates by kinases present in P. falciparum lysates [16, 39], was used to test the effect of the chemical compounds of interest at 100 μM concentration on PanK activity.
The ability of the test compounds to inhibit P. falciparum pantothenate kinase (PfPanK) was assessed with a radiometric pantothenate phosphorylation assay as described previously [39]. In short, the phosphorylation of [^14C] pantothenate by P. falciparum lysates was measured in the presence or absence of a single concentration (100 μM, two biological replicates in duplicate technical repeats) of each test compound. […] P. falciparum lysate was prepared from trophozoite stage parasites isolated from their host RBC by treatment with 0.05% (w/v) saponin, and washed (three times) in HEPES-buffered saline (125 mM NaCl, 5 mM KCl, 20 mM D-glucose, 25 mM HEPES, 1 mM MgCl2, pH 7.1). Lysates were prepared in 10 mM potassium phosphate, pH 7.4, the concentration of cell lysates was determined from cell counts with an improved Neubauer hemocytometer, and aliquots of lysate were stored at -20 °C.[^14C] pantothenate, [^14C]

[2] = biological target: late stage gametocytes (stage IV to V) of P. falciparum line NF54^Pfs16; test: Gametocyte luciferase assay, late stage; format: cell-based, Plasmodium falciparum
Text: To investigate a potential role of CoA biosynthesis for host to vector transmission of the malaria parasite, we investigated the activity of our compounds on P. falciparum gametocytes, the sexual stages of P. falciparum, essential for malaria transmission. […] Parasite stage-specificity and gametocytocidal activity of the compounds was therefore investigated, utilizing a luciferase-based approach on early stage (development from stage I to IIb/III [30]) and late stage (IV to V [51]) gametocytes.
(§1) Induction of P. falciparum gametocyte differentiation and gametocyte culturing were performed as previously described. Compound activity against early stage gametocytes (covering the development from stage I to IIb/III) and late stage gametocytes (stage IV to V) of the recombinant P. falciparum line NF54^Pfs16 was assessed in concentration-response assays, in two experimental replicates consisting of two technical repeats each, at a highest concentration of 40 μM, as described earlier.

HEK293 cells = conditions: as previously reported; read-out: HEK293 cytotoxicity IC50 ± SEM; cited from earlier work
[3] = test system: T. b. brucei trypomastigote; test: T. b. brucei resazurin (Alamar Blue) viability assay; format: cell-based, Trypanosoma brucei brucei
Experimental: Compound activity against two members of another clinically important group of parasites, the kinetoplastids T. cruzi and T. b. brucei was determined. The sensitive high content imaging assay used to determine compound activity against T. cruzi assesses the intracellular amastigote life form of the parasite in the 3T3 host cell. […] The T. b. brucei assay employs the REDOX indicator Alamar Blue to assess viability, which was developed into a 384-well assay format.
Compound activity against T. b. brucei was assessed in a resazurin-based viability assay in concentration-response assays, without technical repeats, in two experimental replicates at a highest concentration of 40 μM, as previously described.

[4] = test system: P. falciparum early stage gametocytes (PfEG, stage I-III); test: Chemical rescue with CoA pathway intermediates, early stage gametocytes; format: cell-based, Plasmodium falciparum; conditions: for Percent rescue ± SEM by CoA, PfEG: CoA 1.6 mM; for Percent rescue ± SEM by CoA, PfEG / Percent rescue ± SEM by pantethine, PfEG / Percent rescue ± SEM by pantothenate, PfEG: inhibitor at IC80; for Percent rescue ± SEM by pantethine, PfEG: pantethine 10 mM; for Percent rescue ± SEM by pantothenate, PfEG: pantothenate 625 μM
Experimental: (§2) Pantothenate is the first substrate of the pathway (Fig. 1) and its addition was intended to rescue the action of possible competitive inhibitors of the first enzyme, PanK. […] It is not known, whether P. falciparum is capable of pantetheine phosphorylation for utilization in CoA synthesis. […] Finally, the rescue ability of dP-CoA, the final substrate of CoA synthesis, was tested. […] Inhibitors competing with dP-CoA for DPCK binding were expected to be displaced, thereby rescuing parasite survival, by dP-CoA supplementation in a concentration dependent manner.
(§3) An imaging based assay was utilised to assess the chemical rescue on asexual stages of P. falciparum as described previously. All the pathway intermediates were purchased from Sigma. CoA and dP-CoA were dissolved in sterile distilled water to obtain a 20 mM stock solution, which was then aliquoted and stored at -20 °C until use. […] Each pathway intermediate was tested on the parasites at a range of concentrations to assess potential toxicity. […] On early stage P. falciparum gametocytes the same concentrations as for CoA were tested for dP-CoA; against asexual blood stage P. falciparum, late stage gametocytes and Trypanosoma b. brucei five dP-CoA concentrations were tested (2 mM, 1.5 mM, 1 mM, 0.75 mM and 0.5 mM).
(§4) The same concentration ranges of the CoA pathway intermediates were supplemented to parasites treated with the experimental compounds. […] The negative control used in each assay was 0.4% DMSO, whilst the positive control was 2 μM artemisinin for asexual P. falciparum blood stages and 5 μM puromycin for all gametocyte stages and T. b. brucei. The percentage growth of the respective parasites following compound treatment was determined using Microsoft ® Excel 2010, and compared with their controls. All rescue assays were performed as two independent experiments each in duplicate point.

[5] = test system: P. falciparum developmental stages; test: Activity across all P. falciparum life-cycle stages tested (asexual, early and late gametocytes); format: cell-based, Plasmodium falciparum; conditions: early and late stage gametocytes; for IC50: read-out: IC50 range across all P. falciparum life-cycle stages tested
Experimental: as §1

[6] = test system: P. falciparum late stage gametocytes (PfLG, stages IV-V); test: Chemical rescue with CoA pathway intermediates, late stage gametocytes; format: cell-based, Plasmodium falciparum; conditions: inhibitor at IC80; for Percent rescue ± SEM by pantethine, PfLG: pantethine 5 mM; for Percent rescue ± SEM by pantothenate, PfLG: pantothenate 312.5 μM; for Percent rescue ± SEM by CoA, PfLG: CoA 1.8 mM; for Percent rescue ± SEM by dephospho CoA, PfLG: dP-CoA 2 mM
Experimental: as §2, §3
as §4, with “compounds. The inhibitors were used at their respective final assay concentration of IC80 (as determined previously in the corresponding P. falciparum development stage or T. b. brucei assay).” for “compounds.”

[7] = test system: T. b. brucei trypomastigotes; test: Chemical rescue with CoA pathway intermediates, T. b. brucei; format: cell-based, Trypanosoma brucei brucei; conditions: inhibitor at IC80; for Percent rescue ± SEM by CoA, Tbb: CoA 1.0 mM; for Percent rescue ± SEM by pantethine, Tbb: pantethine 2.44 μM; for Percent rescue ± SEM by pantothenate, Tbb: pantothenate 1.25 mM
Experimental: as §2
An imaging based assay was utilised to assess the chemical rescue on asexual stages of P. falciparum as described previously. All the pathway intermediates were purchased from Sigma. […]
as §4, with “compounds. The inhibitors were used at their respective final assay concentration of IC80 (as determined previously in the corresponding P. falciparum development stage or T. b. brucei assay).” for “compounds.”

[8] = read-out: Late stage gametocyte IC50
[9] = highest concentration 40 μM, read-out: Late stage gametocyte IC50 ± SEM

Structure (SMILES) | IC50 [2, 8] [nM] | IC50 (HEK293 cells) [nM] | Percent rescue ± SEM by CoA, PfEG [4] | Percent rescue ± SEM by pantethine, PfEG [4] | Percent rescue ± SEM by pantothenate, PfEG [4] | activity against all P. falciparum development stages tested (in words) [5] | IC50 [5] [nM] | Percent rescue ± SEM by pantethine, PfLG [6] | Percent rescue ± SEM by pantothenate, PfLG [6] | IC50 [2, 9] | Percent rescue ± SEM by CoA, Tbb [7] [%] | Percent rescue ± SEM by pantethine, Tbb [7] | Percent rescue ± SEM by pantothenate, Tbb [7] | IC50 ([3]; read-out: T. b. brucei IC50) [nM] | other results
Cc1csc(Sc2ncnc3sccc23)n1 [Amb180780] | 70 | ~40000 | 111.3 ± 3.2% and ~100% | 94.2 ± 1.8% and ~100% | No | sub-micromolar IC50 values | 60 to 120 | No | No | – | – | – | – | – | PanK inhibition [1]: did not reveal inhibition of PanK; T. b. brucei trypomastigote percent inhibition at the highest concentration tested ([3]; 40 µM, given if an IC50 could not be calculated): 100%
CC(=O)c1ccc2c3c(onc13)-c1ccccc1C2=O [Amb3377585] | – | 2750 ± 180 | – | No | No | – | – | – | – | 6220 ± 2500 nM | 95.0 ± 4.2 | No | 34.2 ± 1.3% and 34 ± 1% | 200 | Percent rescue ± SEM by dephospho CoA, Tbb ([7]; dP-CoA 1.6 mM): 100.4 ± 1.4%
CC(=O)C1=C(c2ccccc2)C(=O)c2ccccc2C1=O [Amb4317088] | – | 2330 ± 120 | – | – | – | moderate, single digit micromolar activity | – | No | No | 2240 nM and 2200 nM | 85.0 ± 6.9 | No | No | 160 | –
CC1=CC(=O)C(C(C)C)=C/C1=N/OS(=O)(=O)c1ccccc1 [STK 740987] | 460 | > 40000 | 24.1 ±0.7% and 24 ± 1% | No and not rescued by the other intermediates | No and not rescued by the other intermediates | sub-micromolar IC50 values | 380 to 460 | No | No | – | 69.6 ± 10.6 | No | No | – | IC50 ([3]; highest concentration 40 μM, read-out: T. b. brucei trypomastigote IC50 ± SEM): 1020 nM and 1000 nM; activity on early stage gametocytes at previously determined IC80 value ([4]; compound alone in rescue experiment): > 95%; Percent rescue by CoA, PfEG, at the compound's IC50 ([4]; inhibitor at IC50): 61.5 ± 1.0% and 62 ± 1%; Percent rescue by dephospho CoA, PfEG, at the compound's IC50 ([4]; inhibitor at IC50): 46.2 ± 2.4% and 46 ± 2%; Rescue by pantethine, PfEG, at the compound's IC50 (in words) ([4]; inhibitor at IC50): unaffected; Rescue by pantothenate, PfEG, at the compound's IC50 (in words) ([4]; inhibitor at IC50): unaffected; Percent rescue ± SEM by CoA, PfLG [6]: 53.1 ± 0.5%; Percent rescue ± SEM by CoA, PfLG ([6]; listed as STK740987): approximately 50%; Percent rescue ± SEM by dephospho CoA, PfLG [6]: 50.3 ± 0.8%; Percent rescue ± SEM by dephospho CoA, PfLG ([6]; listed as STK740987): approximately 50%
